Test results published in patent publication US9296769B2, “Tenofovir alafenamide hemifumarate” (Gilead Sciences, Inc., priority 2011, dated 2016).
Where two headings read alike, the source gives them in different places.

Assays:
[1] = From the text: Chemical stability of the hemifumarate form of tenofovir alafenamide was compared with the monofumarate form. […] Conditions evaluated include temperature, relative humidity (RH), and the open or closed state of the container cap.
[2] = for Thermodynamic stability: solvents such as ACN, toluene, MTBE, acetone, THF, 2-methyl THF
[3] = remark: listed apart in the source
Procedure: DVS analysis was conducted using 4.951 mg of tenofovir alafenamide hemifumarate. The material was kept at 25° C. in nitrogen at humidities ranging from 10% to 90% relative humidity; each step was equilibrated for 120 minutes.

[4] = 40° C./75% RH Cap Closed, 0 weeks
[5] = 40° C./75% RH Cap Closed, 1 week
[6] = 40° C./75% RH Cap Closed, 2 weeks
[7] = 40° C./75% RH Cap Closed, 4 weeks
[8] = 40° C./75% RH Cap Closed, 8 weeks
[9] = 40° C./75% RH Cap Open, 0 weeks
[10] = 40° C./75% RH Cap Open, 2 weeks
[11] = 40° C./75% RH Cap Open, 4 weeks
[12] = 40° C./75% RH Cap Open, 8 weeks

| Compound | % TA Area Normalized [1, 4] [%] | % Total Deg. Products [1, 4] [%] | % TA Area Normalized [1, 5] [%] | % Total Deg. Products [1, 5] [%] | % TA Area Normalized [1, 6] [%] | % Total Deg. Products [1, 6] [%] | % TA Area Normalized [1, 7] [%] | % Total Deg. Products [1, 7] [%] | % TA Area Normalized [1, 8] [%] | % Total Deg. Products [1, 8] [%] | % TA Area Normalized [1, 9] [%] | % Total Deg. Products [1, 9] [%] | % TA Area Normalized ([1]; 40° C./75% RH Cap Open, 1 week) [%] | % Total Deg. Products ([1]; 40° C./75% RH Cap Open, 1 week) [%] | % TA Area Normalized [1, 10] [%] | % Total Deg. Products [1, 10] [%] | % TA Area Normalized [1, 11] [%] | % Total Deg. Products [1, 11] [%] | % TA Area Normalized [1, 12] [%] | % Total Deg. Products [1, 12] [%] | further results |
| --- | --- | --- | --- | --- | --- | --- | --- | --- | --- | --- | --- | --- | --- | --- | --- | --- | --- | --- | --- | --- | --- |
| CC(C)OC(=O)[C@H](C)N[P@](=O)(CO[C@H](C)Cn1cnc2c(N)ncnc21)Oc1ccccc1 [Monofumarate form, 9-[(R)-2-[[(S)-[[(S)-1-(isopropoxycarbonyl)ethyl]amino]phenoxyphosphinyl]methoxy]propyl]adenine] | 97.1 | 0.69 | 97.0 | 0.87 | 96.6 | 1.18 | 96.4 | 1.49 | 95.4 | 2.36 | 97.1 | 0.69 | 96.9 | 0.90 | 96.6 | 1.10 | 96.2 | 1.67 | 95.0 | 2.74 | % TA Area Normalized ([1]; 70° C. Cap Closed, 0 weeks): 97.1%; % Total Deg. Products ([1]; 70° C. Cap Closed, 0 weeks): 0.69%; % TA Area Normalized ([1]; 70° C. Cap Closed, 2 weeks): 96.2%; % Total Deg. Products ([1]; 70° C. Cap Closed, 2 weeks): 1.83%; % TA Area Normalized ([1]; 70° C. Cap Closed, 4 weeks): 93.3%; % Total Deg. Products ([1]; 70° C. Cap Closed, 4 weeks): 4.78%; Form conversion when suspended in solvent ([2]; ACN, ethyl acetate, MTBE and acetone): partially converts to the hemifumarate form; Form conversion when suspended in solvent ([2]; THF and 2-methyl THF): fully converts to the hemifumarate form; Thermodynamic stability ([2]; ethyl acetate): not thermodynamically stable |
| CC(C)OC(=O)[C@H](C)N[P@](=O)(CO[C@H](C)Cn1cnc2c(N)ncnc21)Oc1ccccc1 [Hemifumarate form, 9-[(R)-2-[[(S)-[[(S)-1-(isopropoxycarbonyl)ethyl]amino]phenoxyphosphinyl]methoxy]propyl]adenine] | 98.4 | 0.05 | 98.4 | 0.14 | 98.5 | 0.14 | 98.4 | 0.25 | 98.0 | 0.49 | 98.4 | 0.05 | 98.5 | 0.15 | 98.5 | 0.14 | 98.4 | 0.26 | 98.1 | 0.50 | % TA Area Normalized ([1]; 70° C. Cap Closed, 0 weeks): 98.4%; % Total Deg. Products ([1]; 70° C. Cap Closed, 0 weeks): 0.05%; % TA Area Normalized ([1]; 70° C. Cap Closed, 2 weeks): 98.5%; % Total Deg. Products ([1]; 70° C. Cap Closed, 2 weeks): 0.22%; % TA Area Normalized ([1]; 70° C. Cap Closed, 4 weeks): 98.4%; % Total Deg. Products ([1]; 70° C. Cap Closed, 4 weeks): 0.33%; Hygroscopicity ([3]; 25° C. in nitrogen, 10% to 90% relative humidity): nonhygroscopic; Water absorbed ([3]; 25° C., relative humidity of 90%): 0.65%; Thermodynamic stability ([2]; ethyl acetate, listed as tenofovir alafenamide hemifumarate): thermodynamically stable in most solvents |
